# US11000033B2, “Ketone or oxime compound, and herbicide” (NISSAN CHEMICAL CORPORATION, priority 2014, dated 2021)
# Legend:
# Type in all cases: in vivo
# Setaria viridis [1] = experiment: Test Example 5: herbicidal effect by foliage application, plastic box (symbol G); settings: 320 g/ha, 3 weeks after application
# Outline: (§1)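 After sowing into sterilized diluvial soil and growing two weeks under glass at 25° C. to 30° C., seedlings receive a uniform foliar spray of diluted emulsion. Damage is judged visually three weeks on.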
# Scirpus juncoides = experiment: Test Example 1: herbicidal activity, application before weed generation in submerged conditions (symbol B); settings: application herbicide amount 320 g/ha
# Outline: (§2)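 Flooded alluvial soil (4 cm water) was mixed-sown with the three weed species, and 2.5-leaf rice seedlings were transplanted. On sowing day, a water-diluted emulsion at a predetermined rate was applied to the water surface. After 3 weeks in a 25–30 °C greenhouse, effect was scored 0–5.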
# [2] = tested on: Echinochloa crus-galli var. crus-galli; experiment: Test Example 5: herbicidal effect by foliage application, plastic box (symbol H); settings: 320 g/ha, 3 weeks after application
# Outline: as §1
# Setaria viridis [3] = experiment: Test Example 4: herbicidal effect by soil treatment (symbol G); settings: application herbicide amount 320 g/ha
# Outline: (§3)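 Seeds were sown in sterilized diluvial soil, covered with about 1.5 cm of soil, and the soil surface was sprayed with a water-diluted emulsion of the compound at a predetermined rate. Plants grew in a greenhouse at 25° C. to 30° C.; effects were scored visually 3 weeks after application.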
# Veronica persica = experiment: Test Example 4: herbicidal effect by soil treatment (symbol R); settings: application herbicide amount 320 g/ha
# Outline: as §3
# Amaranthus retroflexus = experiment: Test Example 4: herbicidal effect by soil treatment (symbol N); settings: application herbicide amount 320 g/ha
# Outline: as §3
# [4] = tested on: Echinochloa oryzacola Vasing.; experiment: Test Example 1: herbicidal activity, application before weed generation in submerged conditions (symbol A); settings: application herbicide amount 320 g/ha
# Outline: as §2
# Chenopodium album = experiment: Test Example 4: herbicidal effect by soil treatment (symbol O); settings: application herbicide amount 320 g/ha
# Outline: as §3
# Alopecurus myosuroides = experiment: Test Example 5: herbicidal effect by foliage application, plastic box (symbol J); settings: 320 g/ha, 3 weeks after application
# Outline: as §1
# Galium spurium = experiment: Test Example 4: herbicidal effect by soil treatment (symbol Q); settings: application herbicide amount 320 g/ha
# Outline: as §3
Structure (SMILES),"G: Setaria viridis, herbicidal effect (criteria of Test Example 1) (Setaria viridis [1])","Herbicidal effect grade, B: Scirpus juncoides (Scirpus juncoides)","H: Echinochloa crus-galli var. crus-galli, herbicidal effect (criteria of Test Example 1) [2]","G: Setaria viridis, herbicidal effect grade (Setaria viridis [3])","R: Veronica persica, herbicidal effect grade (Veronica persica)","N: Amaranthus retroflexus, herbicidal effect grade (Amaranthus retroflexus)","Herbicidal effect grade, A: Echinochloa oryzacola Vasing. [4]","O: Chenopodium album, herbicidal effect grade (Chenopodium album)","J: Alopecurus myosuroides, herbicidal effect (criteria of Test Example 1) (Alopecurus myosuroides)","Q: Galium spurium, herbicidal effect grade (Galium spurium)","Herbicidal effect grade, G: Setaria viridis (Setaria viridis [3])","Herbicidal effect grade, R: Veronica persica (Veronica persica)","Herbicidal effect grade, N: Amaranthus retroflexus (Amaranthus retroflexus)","Herbicidal effect grade, O: Chenopodium album (Chenopodium album)","Herbicidal effect grade, Q: Galium spurium (Galium spurium)"
CON=C(C)CC1CC(O)=C(c2c(C)cc(-c3ccc(Cl)cc3F)cc2C)C1=O (stereo not drawn) [6-084],5 (Herbicidal ratio of 90% or more (almost completely withered)),3 (Herbicidal ratio of 40% or higher and lower than 70%),5 (Herbicidal ratio of 90% or more (almost completely withered)),5 (Herbicidal ratio of 90% or more (almost completely withered)),4 (Herbicidal ratio of 70% or higher and lower than 90%),4 (Herbicidal ratio of 70% or higher and lower than 90%),5 (Herbicidal ratio of 90% or more (almost completely withered)),3 (Herbicidal ratio of 40% or higher and lower than 70%),5 (Herbicidal ratio of 90% or more (almost completely withered)),3 (Herbicidal ratio of 40% or higher and lower than 70%),–,–,–,–,–
CON=C(C)CC1CC(O)=C(c2c(F)cc(C)cc2OC)C1=O (stereo not drawn) [6-108],5 (Herbicidal ratio of 90% or more (almost completely withered)),3 (Herbicidal ratio of 40% or higher and lower than 70%),5 (Herbicidal ratio of 90% or more (almost completely withered)),–,–,–,4 (Herbicidal ratio of 70% or higher and lower than 90%),–,5 (Herbicidal ratio of 90% or more (almost completely withered)),–,4 (Herbicidal ratio of 70% or higher and lower than 90%),3 (Herbicidal ratio of 40% or higher and lower than 70%),4 (Herbicidal ratio of 70% or higher and lower than 90%),5 (Herbicidal ratio of 90% or more (almost completely withered)),3 (Herbicidal ratio of 40% or higher and lower than 70%)
CON=C(C)CC1CC(O)=C(c2c(C)cc(-c3ccc(Cl)cc3Cl)cc2C)C1=O (stereo not drawn) [6-088],5 (Herbicidal ratio of 90% or more (almost completely withered)),1 (Herbicidal ratio of 5% or higher and lower than 20%),5 (Herbicidal ratio of 90% or more (almost completely withered)),–,–,–,4 (Herbicidal ratio of 70% or higher and lower than 90%),–,5 (Herbicidal ratio of 90% or more (almost completely withered)),–,5 (Herbicidal ratio of 90% or more (almost completely withered)),4 (Herbicidal ratio of 70% or higher and lower than 90%),0 (Herbicidal ratio of 5% or lower (almost no effect)),5 (Herbicidal ratio of 90% or more (almost completely withered)),4 (Herbicidal ratio of 70% or higher and lower than 90%)
CON=C(C)CC1CC(OC(=O)COc2ccccc2)=C(c2c(C)cc(-c3ccc(Cl)cc3)cc2OC)C1=O (stereo not drawn) [6-079],5 (Herbicidal ratio of 90% or more (almost completely withered)),0 (Herbicidal ratio of 5% or lower (almost no effect)),5 (Herbicidal ratio of 90% or more (almost completely withered)),5 (Herbicidal ratio of 90% or more (almost completely withered)),3 (Herbicidal ratio of 40% or higher and lower than 70%),4 (Herbicidal ratio of 70% or higher and lower than 90%),4 (Herbicidal ratio of 70% or higher and lower than 90%),0 (Herbicidal ratio of 5% or lower (almost no effect)),5 (Herbicidal ratio of 90% or more (almost completely withered)),0 (Herbicidal ratio of 5% or lower (almost no effect)),–,–,–,–,–
CON=C(C)CC1CC(O)=C(c2c(C)cc(-c3ncccn3)cc2C)C1=O (mixture of isomers) [6-057],5 (Herbicidal ratio of 90% or more (almost completely withered)),3 (Herbicidal ratio of 40% or higher and lower than 70%),5 (Herbicidal ratio of 90% or more (almost completely withered)),5 (Herbicidal ratio of 90% or more (almost completely withered)),0 (Herbicidal ratio of 5% or lower (almost no effect)),0 (Herbicidal ratio of 5% or lower (almost no effect)),3 (Herbicidal ratio of 40% or higher and lower than 70%),0 (Herbicidal ratio of 5% or lower (almost no effect)),5 (Herbicidal ratio of 90% or more (almost completely withered)),0 (Herbicidal ratio of 5% or lower (almost no effect)),–,–,–,–,–
"CON=C(C)CC1CC(O)=C(c2c(C)cc(-c3ccc(Cl)cc3)cc2OC)C1=O (stereo not drawn) [6-077, 2-(4′-chloro-3-methoxy-5-methyl-[1,1′-biphenyl]-4-yl)-3-hydroxy-5-{2-(methoxyimino)propyl}cyclopent-2-enone]",5 (Herbicidal ratio of 90% or more (almost completely withered)),3 (Herbicidal ratio of 40% or higher and lower than 70%),5 (Herbicidal ratio of 90% or more (almost completely withered)),5 (Herbicidal ratio of 90% or more (almost completely withered)),4 (Herbicidal ratio of 70% or higher and lower than 90%),5 (Herbicidal ratio of 90% or more (almost completely withered)),5 (Herbicidal ratio of 90% or more (almost completely withered)),4 (Herbicidal ratio of 70% or higher and lower than 90%),5 (Herbicidal ratio of 90% or more (almost completely withered)),4 (Herbicidal ratio of 70% or higher and lower than 90%),–,–,–,–,–
